Laboratory results as given in patent US7531655B2, “Large conductance calcium-activated K channel opener” (Mitsubishi Tanabe Pharma Corporation, priority 2002, dated 2009).

How the values were obtained:
[1] = tested on: isolated rabbit urinary bladder; assay: Relaxation effect on potassium-induced contraction of isolated rabbit urinary bladder; type: cell-based; conditions: Oryctolagus cuniculus, read-out: IC50 value (50% relaxation concentration)
Procedure: Relaxation Effect on Potassium-Induced Contraction of Isolated Rabbit Urinary Bladder
Urinary bladder was isolated from Male NZW rabbits (body weight: 2.0-3.5 kg) and immersed in ice-cold Krebs-bicarbonate solution (in mM: 118 NaCl, 4.7 KCl, 2.55 CaCl2, 1.18 MgSO4, 1.18 KH2PO4, 24.88 NaHCO3 and 11.1 glucose). The urinary bladder was cut into longitudinal strips (5 mm length 3-4 mm width) after mucosal layer was removed.
Preparations were mounted in organ baths containing 10 ml of Krebs solution maintained at 37° C. and gassed with 95% O2/5% CO2. Accordingly, preparations were stretched with an initial tension of 2.0±1.0 g, and changes in isometric tension were measured by force-displacement transducer. The preparations were pre-contracted by changing organ-bath solution into high-K^+ (30 mM) Krebs solution (in mM: 118 NaCl, […], 2.55 CaCl2, 1.18 MgSO4, 1.18 KH2PO4, 24.88 NaHCO3 and 11.1 glucose).
After stable tension was obtained, compounds were added into organ baths cumulatively (10^−8 M-10^−4 M). The effects of compounds were expressed as a percentage of the maximum relaxation produced by 10^−4 M papaverine as 100%. 50% relaxation concentration (IC50) was calculated and IC50 value range (μM) of compounds of the present invention was shown in the following Table 1 with a rank of A, B or C. These ranges are as mentioned below. • 3 μM≧C>1 μM≧B>0.5 μM≧A

[2] = tested on: rhythmic bladder contractions induced by substance P; assay: Inhibitory effect on the rhythmic bladder contractions induced by substance P in anesthetized rats; type: in vivo, rat; conditions: 0.25 mg/kg intravenous; time during which frequency of rhythmic contraction was completely inhibited; urethane-anesthetized Sprague-Dawley female rats
Procedure: Inhibitory Effect on the Rhythmic Bladder Contractions Induced by Substance P in Anesthetized Rats For the experiments, Sprague-Dawley female rats (9 to 12 weeks old) weighing between 200 to 300 g were used. After urethane anesthetization (subcutaneously administered with a dose of 1.2 g/kg), cannulae were placed in both right and left femoral veins. One intravenous catheter was used for administration of compounds, and the other was for the substance P (0.33 μg/kg/min) infusion. We also cannulated into ureter to pass urine. Polyethylene catheters were inserted into carotid artery for continuous monitoring of arterial blood pressure and heart rate. For continuous infusion, transurethral bladder catheter was inserted into the bladder through the urethra and tied in place by a ligature around the urethral orifice. One end of the catheter was attached to a pressure transducer in order to measure intravesical pressure. The other end of the catheter was used for infusion of saline into the bladder. After stabilization of blood pressure and heart rate and after the bladder was emptied, cystometry was performed by filling the bladder slowly with about 0.6 ml of saline. After about 10 minutes, intravenous infusion of substance P (0.33 μg/kg/min) was started for stabilization of the micturition reflex. […]

Structure (SMILES) | IC50 [1] [µM] | 100% inhibiting time [2] [min]
O=C([O-])Cc1oc(-c2ccccc2)cc1-c1ccc(Cl)s1.[Na+] [2 (Compound 6)] | < 0.5 | 13.1
O=C([O-])Cc1sc(-c2ccccc2)cc1-c1ccc(Cl)s1.[Na+] [3 (Compound 6)] | 0.5 to 1 | 27.1
